Entries after “also recorded” stand apart in the source; their conditions may differ.
How the values were obtained:
[1] = Toxic, mutagenic, teratogenic properties
HSV-1 = HSV-1 plaque assay in Vero cells, time of drug incubation and removal; type: cell-based; settings: 9 mM
Procedure: (A) Vero cells were plated and incubated with 9 mM n-docosanol, the corresponding control vehicle or no addition for 0, 3, 6, or 24 h prior to the addition of HSV-1. The viral plaque assay was continued and the number of p.f.u. determined. The data are expressed as % inhibition compared to wells receiving no treatment. (B) Vero cells were plated, n-docosanol or the corresponding control vehicle was added and cells were incubated at 37° C. in 10% humidified CO2. After 21, 24, 25, 26, and 27 h (6, 3, 2, 1, and 0 h before the addition of HSV-1), media containing drug was removed and the cells were washed with media. After a total of 27 h, HSV-1 was added to all wells. Two hours later virus-containing media was removed and replaced with fresh media lacking virus or drugs. The cultures were incubated and processed for determination of the number of HSV-induced plaques as in (A). […]
The cultures were incubated for an additional 42-44 h, washed once with fresh medium, stained and fixed (the staining/fixative consists of 1.25 mg/ml of carbol-fuchsin plus 2.5 mg/ml of methylene blue in methanol) and then scored for HSV-induced plaques using a dissecting microscope (10× magnification). […]

Friend Virus = Friend Virus replication in primary embryo fibroblast cultures; type: cell-based
Water solubility = type: physicochemical
HSV [2] = assay: Inhibition of HSV replication, Tetronic versus Pluronic suspension; type: cell-based
Excerpt: An initial step in conducting such studies involved switching to a different surfactant or suspending n-docosanol. Tetronic 908 is closely related to Pluronic F68; both are block copolymers of ethylene oxide and propylene oxide. However, whereas Pluronic is a bifunctionaI polymer with a molecular weight of 8,400, Tetronic 908 is a tetrfunctional copolymer, produced by adding propylene oxide and ethylene oxide to ethylenediamine and resulting in a molecule with an average molecular weight of 25,000. […] This appears to relate to the 3-fold higher levels of metabolic conversion in cells treated with n-docosanol in Tetronic.

HSV [3] = assay: Direct viricidal activity (virus mixed with suspension, infectivity recovered)
Procedure: Extensive studies designed to delineate the mechanism by which n-docosanol exerts its antiviral activity were conducted. The collective implications of the results of the studies are that the compound appears to interfere with one or more of the common pathways of viral entry into the cell and migration to the nucleus of infected target cells.
Instead, the drug apparently modifies the target cell in a manner that inhibits viral replication.

HSV-2 = HSV-2 internalization into Vero cells (citrate buffer wash); type: cell-based
Procedure: FIG. 9 depicts data showing that HSV-2 remains on the surface of n-docosanol treated Vero cells for prolonged times. Vero cells were cultured as described in the legend to FIG. 7 and incubated overnight. The cultures were then chilled to 4° C., inoculated with 100 PFU of HSV-2, and incubated 3 hours at 4° C. At time zero the cultures were washed with medium, inoculated with fresh medium (containing the indicated inhibitor) and incubated at 37° C. At each indicated time period, the cultures were washed with citrate buffer (pH 2.5) and reinoculated with fresh medium (lacking inhibitor). After a total of 44 hours incubation the cultures were stained and scored for HSV-2-induced plaques. The data are expressed as geometric means and standard errors derived from triplicate cultures per group.
In this experiment, HSV-2 was incubated with Vero cells in the absence or presence of n-docosanol at 4° C. to allow for receptor binding of the virus. At the end of 3 hours, all cultures were washed and then replated at 37° C. in order to initiate the viral entry process. At 20 minute intervals thereafter, the various cultures were exposed to pH 3.0 citrate buffer, conditions which remove and inactivate surface-bound, but not internalized, HSV virions, and then re-cultured the full 44 hour period required to develop optimal HSV plaques.

HSV-I = assay: Binding of [3H]HSV-I to Vero cells; type: cell-based; settings: virus at 2 p.f.u./cell; n-docosanol 15 mM
Excerpt: Attachment of HSV-I to specific cell surface receptors is unaffected in n-docosanol-treated cells. Previous studies have verified that attachment of HSV-1 to specific cell surface receptors is unaffected in n-docosanol-treated cells. […] Heparin inhibited this interaction 96%.

lipid-enveloped viruses = assay: Spectrum of antiviral activity against lipid-enveloped viruses in vitro; type: cell-based

Question: Which “toxic, mutagenic, or teratogenic properties” value [1] does the source give for `CCCCCCCCCCCCCCCCCCCCCCO` [n-docosanol] here?
Answer: lacks any toxic, mutagenic, or teratogenic properties

Question: And the “inhibition of plaque formation” value (HSV-1; 6-h interval between drug removal and HSV-I addition)?
Answer: no inhibition of HSV-I plaque formation was observed

Question: And the inhibition at 9000 µM (HSV-1; Human alphaherpesvirus 1, Vero, added simultaneously with, or 3 h prior to virus addition, read-out: inhibition of plaque formation)?
Answer: 28%

Question: And the “activity against replication of Friend Virus” value (Friend Virus)?
Answer: very potent activity

Question: And the water solubility (Water solubility)?
Answer: water-insoluble

Question: And the “ED50 for inhibition of HSV replication relative to Tetronic” value (HSV [2]; suspended in Pluronic)?
Answer: approximately 3 times higher

Question: And the “ED50 for inhibition of HSV replication” value (HSV [2]; suspended in Tetronic)?
Answer: 5 to 10 mM

Question: What about the direct viricidal activity (HSV [3]) of the same compound?
Answer: no direct viricidal activity; also recorded: does not directly inactivate virus

Question: What about the “time for internalization to reach completion” value (HSV-2) of the same compound?
Answer: more than 1 hour

Question: And the “internalization of HSV complete” value (HSV-2; 20 minutes after the shift to 37° C.)?
Answer: less than 40%

Question: And the “inhibition of [3H]HSV-I binding” value (HSV-I)?
Answer: bound normal levels

Question: What about the “HUMAN VIRUSES shown to be susceptible” value (lipid-enveloped viruses) of the same compound?
Answer: Respiratory Syncytial Virus; also recorded: Cytomegalovirus; also recorded: Influenza A; also recorded: HIV-1; also recorded: Herpes Simplex-1 & 2; also recorded: Varicella Zoster Virus; also recorded: Human Herpesvirus-6

Question: And the “MURINE VIRUSES shown to be susceptible” value (lipid-enveloped viruses)?
Answer: Cytomegalovirus; also recorded: Friend Leukemic Virus; also recorded: LP-BM5 Virus

Source: patent US20040033982A1, “Viral inhibition by n-docosanol” (priority 2001, published 2004)
